Measured values as given in patent EP0209274A2, “Furanone derivatives” (ELI LILLY AND COMPANY, priority 1985, dated 1987).

Target: T1, fatty acid cyclooxygenase (Homo sapiens, UniProt P23219)
T1 construct: Microsomes were prepared from 185 bags of human platelets; from tissue; host or cells: human platelets (solubilized microsomes, then electrofocusing and Sephadex G-200)
Experiment: Fatty Acid Cyclooxygenase (FCO) Assay
Type: biochemical
Settings: 30 µg/ml test compound; inhibition of formation of PGE2; enzyme from human platelets
Method: Microsomes were prepared from 185 bags of human platelets (each bag containing the platelets from one pint of blood prepared using differential centrifugation procedures). The platelets from approximately 60 bags were prepared at one time. Platelet-rich plasma (500 g) was centrifuged at 10,000 x g for 20 minutes, and the platelet pellet was suspended in 100 ml of 0.1M. potassium phosphate buffer, pH 8.0, with a Teflon glass homogenizer and sonicated for 5.0 minutes with a Bronson Sonifier (Model 350) in a rosette flask cooled in ice water. Disrupted platelets were centrifuged 15 minutes at 10,000 x g. The supernatant was centrifuged at 100,000 x g for 90 minutes and the microsomal pellets were homogenized in 25 ml of 20% sucrose containing 1.0% Triton X-100 detergent. After 30 minutes at 4°C, the solubilized microsomes were centrifuged at 100,000 x g for 60 minutes. The yellow supernatant was removed and stored at -70°C.
The solubilized fatty acid cyclooxygenase was applied to a 440 ml electrofocusing column (LKB-8012) containing 1% phisolytes (Brinkman Instruments, Westburgh, NY), pH 2-11, with the cathode at the top of the column. The enzyme was layered onto the column at the appropriate time so that its sucrose concentration was equal to that of the column gradient. This was accomplished by checking the gradient concentration periodically with a sucrose hand refractometer. Electrofocusing was carried out for 16 hours with an initial voltage of 400 V and a final voltage of 900-1,000 volts. Fractions were collected (20 ml) and assayed for PGE2 formation. Active peak fractions were pooled and concentrated by ultrafiltration (XM 100A) to a volume of 3-5 ml.
Active fractions from electrofocusing were applied to a G-200 Sephadex column (2 cm x 46 cm) and eluted with 10 mM potassium phosphate buffer, pH 7.0, in 5 ml fractions. After assay, active fractions were pooled and concentrated to 1.0 ml by ultrafiltration (XM 100A), and kept frozen at -70°C.
Enzyme activity was determined by assaying for PGE2 formation by preincubating the enzyme with 10 mmol/l imidazole phosphate buffer, pH 8.0, 2 mmol/l epinephrine, 2 mmol/1 methemoglobin, and the test compound (30 pg/ml) in a total volume of 0.2 ml for one minute at 37°C. After preincubation, 5 mmol/1 ^14C-arachidonic acid were added and the mixture was incubated an additional 0.5 minutes at 37°C. The enzyme reaction was stopped by the addition of 20 µl of indomethacin (2 mg/ml) in alcohol.
The reaction mixture was spotted (50 pl) on a silica gel (LQ6D) plate and subjected to TLC. The solvent system consisted of chloroform-methanol-glacial acetic acid (90:5:5, v/v/v) and the relative mobilities were PGF2a = 0.235, and PGE2 = 0.47. The silica gel on the plate was scraped in 1 cm sections, suspended in 5 ml of the scintillation fluid [5.88 g of 2,5-diphenyl-oxazole and 118 mg of 1,4-bis(5-phenyloxazol-2-yl)benzene] dissolved in 650 ml of toluene and 350 ml of Triton X-100) and the radioactivity was determined in an Isocap/300 liquid scintillation counter (Searle Analytic, Inc., Southfield, MI). Another 50 µl of the mixture was added to 10 ml of the Triton X-100 based scintillation fluid, and the radioactivity was determined so that the amount of radioactivity recovery from the TLC plate could be ascertained. PGE2 formation for each test compound was determined as a percent of control experiments wherein no test compound was added. Data is expressed in Table I as the percent inhibition of formation of PGE2 at a test compound concentration of 30 pg/ml.

T1 sequence (P23219 24-599): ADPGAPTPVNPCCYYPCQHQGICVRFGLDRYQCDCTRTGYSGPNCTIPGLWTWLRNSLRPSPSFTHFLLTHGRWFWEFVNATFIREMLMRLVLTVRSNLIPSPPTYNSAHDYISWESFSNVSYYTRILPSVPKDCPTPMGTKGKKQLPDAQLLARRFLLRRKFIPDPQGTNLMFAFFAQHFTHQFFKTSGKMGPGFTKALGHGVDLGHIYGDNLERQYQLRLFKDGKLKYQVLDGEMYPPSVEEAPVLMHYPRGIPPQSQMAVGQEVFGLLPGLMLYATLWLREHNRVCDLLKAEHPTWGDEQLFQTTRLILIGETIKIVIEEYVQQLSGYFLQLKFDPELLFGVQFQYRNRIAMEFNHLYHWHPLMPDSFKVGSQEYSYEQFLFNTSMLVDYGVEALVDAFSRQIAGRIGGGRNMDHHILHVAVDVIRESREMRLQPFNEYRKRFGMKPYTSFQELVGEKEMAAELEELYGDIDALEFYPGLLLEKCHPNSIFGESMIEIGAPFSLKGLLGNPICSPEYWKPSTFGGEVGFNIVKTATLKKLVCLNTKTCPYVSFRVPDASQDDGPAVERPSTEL

Structure (SMILES) | inhibition at 30 µg/mL [%]
CC/C=C\C/C=C\C/C=C\C/C=C\C/C=C\C/C=C\CC1=CC(=O)OC1O (stereo not shown) [Example 9, (Z,Z,Z,Z,Z,Z)-4-(2,5,8,11,14,17-eicosa-hexaenyl)-5-hydroxy-2(5H)-furanone] | 46
CCCCCCCC/C=C\CCCCCCC1=CC(=O)OC1O (stereo not shown) [Example 11, (Z)-4-(7-hexadecenyl)-5-hydroxy-2(5H)-furanone] | 61
CC(C)=CCCC(C)=CCCC(=CCCC1=CC(=O)OC1O)CO (stereo not shown) [Example 19, 5-Hydroxy-4-[4-(hydroxymethyl)-8,12-dimethyl-3,7,11-tridecatrienyl]-2(5H)-furanone] | 14
CCCCC/C=C\C/C=C\C/C=C\C/C=C\CCC1=CC(=O)OC1O (stereo not shown) [Example 3, (Z,Z,Z,Z)-5-hydroxy-4-(3,6,9,12-octa-decatetraenyl)-2(5H)-furanone] | 67
CCCCC/C=C\C/C=C\CCCCCCC1=CC(=O)OC1O (stereo not shown) [Example 1, (Z,Z)-4-(7,10-hexadecadienyl)-5-hydroxy-2-(5H)-furanone] | 77
CC(C)=CCCC(C)=CCCC(C)=CCCC1=CC(=O)OC1O (stereo not shown) [Example 13, 5-Hydroxy-4-(4,8,12-trimethyl-3,7,11-tri-decatrienyl)-2(5H)-furanone] | 47
CC/C=C\C/C=C\C/C=C\CCCCCCC1=CC(=O)OC1O (stereo not shown) [Example 2, (Z,Z,Z)-4-(7,10,13-hexadecatrienyl)-5-hydroxy-2(5H)-furanone] | 75
CCCCCCCC/C=C/CCCCCCC1=CC(=O)OC1O (stereo not shown) [Example 4, (E)-4-(7-hexadecenyl)-5-hydroxy-2(5H)-furanone] | 52
O=C1C=C(CCCCOc2ccc3ccccc3c2)C(O)O1 (stereo not shown) [Example 12, 5-Hydroxy-4-[4-(2-naphthalenyloxy)butyl]-2(5H)-furanone] | 16
CCCCC/C=C\C/C=C\C/C=C\CCCC1=CC(=O)OC1O (stereo not shown) [Example 5, (Z,Z,Z)-4-(4,7,10-hexadecatrienyl)-5-hydroxy-2(5H)-furanone] | 75
CC(C)=CCCC(C)=CCCC(C=O)=CCCC1=CC(=O)OC1O (stereo not shown) [Example 15, 2-[3-(2,5-dihydro-2-hydroxy-5-oxo-3-furanyl)-propylidene]-6,10-dimethyl-5,9-undecadienal] | 32
O=C1C=C(CCCCCOc2ccccc2Cc2ccccc2)C(O)O1 (stereo not shown) [Example 18, 5-Hydroxy-4-[5-(2-benzylphenoxy)pentyl]-2(5H)-furanone] | 20
CC(C)=CCC/C(C)=C/CCC1=CC(=O)OC1O (stereo not shown) [Example 14, (E,E)-4-(4,8-dimethyl-3,7-nonadienyl)-5-hydroxy-2(5H)-furanone] | < 5
